Reference: ChEMBL document CHEMBL4680263, “Identification of benzothiazinones containing 2-benzyl-2,7-diazaspiro[3.5]nonane moieties as new antitubercular agents” (Eur J Med Chem, 2020)
≈ marks a conversion by molar mass, not a printed value.

Legend:
[1] = tested on: Mycobacterium tuberculosis; experiment: Antimycobacterial activity against Mycobacterium tuberculosis H37Rv ATCC 27294 assessed as inhibition of bacterial growth incubated for 7 days by MABA assay; assay type: functional; conditions: H37Rv ATCC 27294, 168 h, time 7 day
[2] = Cytotoxicity against African green monkey Vero cells; assay type: cell-based; conditions: chlorocebus sabaeus
[3] = tested on: Mycobacterium tuberculosis; experiment: Antimycobacterial activity against Mycobacterium tuberculosis H37Rv infected in BALB/c mouse assessed as reduction in colony forming unit in lung at 25 mg/kg, po administered once daily for 5 days a week for 3 weeks (reference value: 5.35 +/- 0.17 log10CFU); assay type: functional
[4] = Cmax in BALB/c mouse at 12.5 mg/kg, po measured upto 24 hrs by HPLC analysis; assay type: ADME, organism-based; design: route oral, dose 12.5 mg/kg, time <=24; conditions: in vivo
[5] = Cmax in BALB/c mouse at 2.5 mg/kg, iv measured upto 24 hrs by HPLC analysis; assay type: ADME, organism-based; design: route intravenous, dose 2.5 mg/kg, time <=24; conditions: in vivo
[6] = Half life in BALB/c mouse at 2.5 mg/kg, iv measured upto 24 hrs by HPLC analysis; assay type: ADME, organism-based; conditions: in vivo
[7] = AUC (0 to infinity) in BALB/c mouse at 2.5 mg/kg, iv measured upto 24 hrs by HPLC analysis; assay type: ADME, organism-based; design: route intravenous, dose 2.5 mg/kg, time <=24; conditions: in vivo
[8] = Half life in BALB/c mouse at 12.5 mg/kg, po measured upto 24 hrs by HPLC analysis; assay type: ADME, organism-based; conditions: in vivo
[9] = AUC (0 to infinity) in BALB/c mouse at 12.5 mg/kg, po measured upto 24 hrs by HPLC analysis; assay type: ADME, organism-based; design: route oral, dose 12.5 mg/kg, time <=24; conditions: in vivo
[10] = Acute toxicity in BALB/c mouse assessed as mouse survival at 2 g/kg, po observed continuously for 4 hrs and each hr for next 24 hrs and at 8 hrs interval for following 7 days; assay type: organism-based; conditions: in vivo, 2000 mg/kg, 168 h, time 7 day
[11] = Oral bioavailability in BALB/c mouse at 12.5 mg/kg measured upto 24 hrs by HPLC analysis; assay type: ADME, organism-based; conditions: in vivo; for bioavailability: BALB/c
[12] = Tmax in BALB/c mouse at 12.5 mg/kg, po measured upto 24 hrs by HPLC analysis; assay type: ADME, organism-based; conditions: in vivo

For `CC(c1ccc(F)cc1F)N1CC2(CCN(c3nc(=O)c4cc(C(F)(F)F)cc([N+](=O)[O-])c4s3)CC2)C1` (centres undefined), the MIC [1] was less than 0.016 µg/mL.
`O=c1nc(N2CCC3(CC2)CN(Cc2ccc(F)cc2)C3)sc2c([N+](=O)[O-])cc(C(F)(F)F)cc12` gave an MIC [1] of less than 0.016 µg/mL.
`CC(c1ccc(F)cc1)N1CC2(CCN(c3nc(=O)c4cc(C(F)(F)F)cc([N+](=O)[O-])c4s3)CC2)C1` (centres undefined) showed an MIC [1] of less than 0.016 µg/mL.
For `CC(c1ccc(C(F)(F)F)cc1)N1CC2(CCN(c3nc(=O)c4cc(C(F)(F)F)cc([N+](=O)[O-])c4s3)CC2)C1` (centres undefined), the CC50 [2] was greater than 64 µg/mL, the Activity [3] was greater than 5 log10CFU and the Cmax [4] was 1240 ng/mL. It also gave a Cmax [5] of 1390 ng/mL, a half-life [6] of 9.29 h and an AUC(0-inf) [7] of 2650 ng·h/mL. For the same compound, the MIC [1] was less than 0.016 µg/mL, the half-life [8] was 6.69 h and the AUC(0-inf) [9] was 5500 ng·h/mL. The Activity [10] was “Non-Toxic”, the bioavailability [11] was 41.5% and the Tmax [12] was 0.25 h.
`CC(c1ccc(OC(F)(F)F)cc1)N1CC2(CCN(c3nc(=O)c4cc(C(F)(F)F)cc([N+](=O)[O-])c4s3)CC2)C1` (centres undefined) gave a CC50 [2] greater than 64 µg/mL, an Activity [3] greater than 5 log10CFU and a Cmax [4] of 915 ng/mL. The Cmax [5] was 1640 ng/mL, the half-life [6] was 8.51 h and the AUC(0-inf) [7] was 2990 ng·h/mL. It also gave an MIC [1] of less than 0.016 µg/mL, a half-life [8] of 6 h and an AUC(0-inf) [9] of 3620 ng·h/mL. The Activity [10] was “Non-Toxic”, the bioavailability [11] was 24.2% and the Tmax [12] was 0.25 h.
Compound `CC(c1ccc(Cl)c(F)c1)N1CC2(CCN(c3nc(=O)c4cc(C(F)(F)F)cc([N+](=O)[O-])c4s3)CC2)C1` (centres undefined) has a CC50 [2] greater than 64 µg/mL, an Activity [3] greater than 5 log10CFU and a Cmax [4] of 313 ng/mL. It also gave a Cmax [5] of 709 ng/mL, a half-life [6] of 7.5 h and an AUC(0-inf) [7] of 1170 ng·h/mL. For the same compound, the MIC [1] was less than 0.016 µg/mL, the half-life [8] was 10.1 h and the AUC(0-inf) [9] was 1940 ng·h/mL. For the same compound, the Activity [10] was “Non-Toxic”, the bioavailability [11] was 33% and the Tmax [12] was 0.5 h.
In the case of `O=c1nc(N2CCC3(CC2)CN(Cc2cc(F)cc(F)c2)C3)sc2c([N+](=O)[O-])cc(C(F)(F)F)cc12`, the MIC [1] is reported as less than 0.016 µg/mL.
Work on `O=c1nc(N2CCN(CC3CCCCC3)CC2)sc2c([N+](=O)[O-])cc(C(F)(F)F)cc12` [MACOZINONE] yielded a CC50 [2] greater than 64 µg/mL, an Activity [3] greater than 5 log10CFU and a Cmax [4] of 734 ng/mL. It also gave a Cmax [5] of 1840 ng/mL, a half-life [6] of 5.14 h and an AUC(0-inf) [7] of 1540 ng·h/mL. The MIC [1] was less than 0.016 µg/mL, the half-life [8] was 5.07 h and the AUC(0-inf) [9] was 912 ng·h/mL. For the same compound, the F ([11]; 12.5 mg/kg, 24 h) was 11.8% and the Tmax [12] was 0.25 h.
Work on `CC(c1cccc(F)c1)N1CC2(CCN(c3nc(=O)c4cc(C(F)(F)F)cc([N+](=O)[O-])c4s3)CC2)C1` (centres undefined) yielded an MIC [1] of less than 0.016 µg/mL.
`CO[C@H]1/C=C/O[C@@]2(C)Oc3c(C)c(O)c4c(O)c(c(/C=N/N5CCN(C)CC5)c(O)c4c3C2=O)NC(=O)/C(C)=C\C=C\[C@H](C)[C@H](O)[C@@H](C)[C@@H](O)[C@@H](C)[C@H](OC(C)=O)[C@@H]1C` [RIFAMPIN] gave an MIC [1] of 0.037 µg/mL (≈ 0.045 µM).
For `O=c1nc(N2CCC3(CC2)CN(Cc2ccc(OC(F)(F)F)cc2)C3)sc2c([N+](=O)[O-])cc(C(F)(F)F)cc12`, the MIC [1] was less than 0.016 µg/mL.
With `CC(c1ccc(OC(F)(F)F)cc1)N1CCC2(CC1)CN(c1nc(=O)c3cc(C(F)(F)F)cc([N+](=O)[O-])c3s1)C2` (centres undefined) the CC50 [2] was greater than 64 µg/mL, the Activity [3] was 4.05 log10CFU and the MIC [1] was less than 0.016 µg/mL. For the same compound, the Activity [10] was “Non-Toxic”.
In the case of `CC(c1cc(F)c(F)c(F)c1)N1CC2(CCN(c3nc(=O)c4cc(C(F)(F)F)cc([N+](=O)[O-])c4s3)CC2)C1` (centres undefined), the CC50 [2] is reported as greater than 64 µg/mL, the Activity [3] is reported as greater than 5 log10CFU and the Cmax [4] is reported as 240 ng/mL. It also gave a Cmax [5] of 463 ng/mL, a half-life [6] of 1.86 h and an AUC(0-inf) [7] of 498 ng·h/mL. The MIC [1] was less than 0.016 µg/mL, the half-life [8] was 2.08 h and the AUC(0-inf) [9] was 455 ng·h/mL. For the same compound, the Activity [10] was “Non-Toxic”, the bioavailability [11] was 18.3% and the Tmax [12] was 0.25 h.
With `NNC(=O)c1ccncc1` [ISONIAZID] the Activity [3] was greater than 5 log10CFU and the MIC [1] was 0.038 µg/mL (≈ 0.277 µM).
Compound `O=c1nc(N2CCC3(CC2)CN(C(c2ccc(F)cc2)c2ccc(F)cc2)C3)sc2c([N+](=O)[O-])cc(C(F)(F)F)cc12` has an MIC [1] of 0.037 µg/mL (≈ 0.0614 µM).
`CC(c1ccc(Cl)cc1)N1CC2(CCN(c3nc(=O)c4cc(C(F)(F)F)cc([N+](=O)[O-])c4s3)CC2)C1` (centres undefined) gave an MIC [1] of less than 0.016 µg/mL.
In the case of `CC(c1ccc(F)c(F)c1)N1CC2(CCN(c3nc(=O)c4cc(C(F)(F)F)cc([N+](=O)[O-])c4s3)CC2)C1` (centres undefined), the MIC [1] is reported as less than 0.016 µg/mL.
Compound `O=c1nc(N2CCC3(CC2)CN(Cc2cccc(F)c2)C3)sc2c([N+](=O)[O-])cc(C(F)(F)F)cc12` has an MIC [1] of less than 0.016 µg/mL.
With `O=c1nc(N2CCC3(CC2)CN(Cc2ccc(C(F)(F)F)cc2)C3)sc2c([N+](=O)[O-])cc(C(F)(F)F)cc12` the CC50 [2] was greater than 64 µg/mL, the MIC [1] was less than 0.016 µg/mL and the Activity [10] was “Toxic”.
`CC(c1ccc(Br)cc1)N1CC2(CCN(c3nc(=O)c4cc(C(F)(F)F)cc([N+](=O)[O-])c4s3)CC2)C1` (centres undefined) showed an MIC [1] of less than 0.016 µg/mL.
With `CC(c1cc(F)cc(F)c1)N1CC2(CCN(c3nc(=O)c4cc(C(F)(F)F)cc([N+](=O)[O-])c4s3)CC2)C1` (centres undefined) the CC50 [2] was greater than 64 µg/mL, the Activity [3] was greater than 5 log10CFU and the Cmax [4] was 286 ng/mL. For the same compound, the Cmax [5] was 723 ng/mL, the half-life [6] was 3.25 h and the AUC(0-inf) [7] was 812 ng·h/mL. The MIC [1] was less than 0.016 µg/mL, the half-life [8] was 3.02 h and the AUC(0-inf) [9] was 609 ng·h/mL. The Activity [10] was “Non-Toxic”, the bioavailability [11] was 15% and the Tmax [12] was 0.25 h.
In the case of `O=c1nc(N2CCC3(CC2)CN(Cc2ccc(Br)cc2)C3)sc2c([N+](=O)[O-])cc(C(F)(F)F)cc12`, the MIC [1] is reported as less than 0.016 µg/mL.
For `CC(c1ccc(F)c(Cl)c1)N1CC2(CCN(c3nc(=O)c4cc(C(F)(F)F)cc([N+](=O)[O-])c4s3)CC2)C1` (centres undefined), the MIC [1] was less than 0.016 µg/mL.
